Test [1] deals with HCH mouse model (Fgfr3^N534K/+), mandible bone repair. Put plainly: Non-stabilized mandibular fracture repair in HCH mice treated with BMN111 (microCT, repair grade). The test is classed as in vivo. As for the experimental part: Mandibular bone repair was studied in the HCH mouse model (Fgfr3^N534K/+). The experiments were performed in adult animals at 6 weeks of age, and mice were euthanized at 4 key points: during bone repair (10, 14, 21 days post fracture), and at the end of the normal bone healing process i.e. at 28 days post fracture.
Vertical mandibular fractures were performed in the ascending ramus region in Fgfr3^N534K/+ and Fgfr3^+/+ mice. This is a non-stabilized mandibular fracture protocol allowing to analyze the endochondral bone repair process.
Four batches (n=100) of Fgfr3^N534K/+ and Fgfr3^+/+ mandible fractures corresponding to different key stages of repair were studied (day 10, day 14, day 21, day 28). Using collagen type II (proliferative cartilage), type X (hypertrophic cartilage) and type I (bone) immunolabelling, we observed that the endochondral process is disturbed, we noted a delayed cartilage resorption, a reduction in the size of hypertrophic chondrocytes area and a defect in bone formation within the repair callus in Fgfr3^N534K/+ compared to Fgfr3^+/+. […] We observed the presence of pseudarthrosis (fibrosis in the callus) in Fgfr3^N534K/+ mice whereas we observed 100% of bone in Fgfr3^+/+ callus. Considering the quality of the newly formed bone at day 28, we defined four grades of repair and classified the mice according to their repair grade (from 1 to 4). The defective repair is significant in Fgfr3^N534K/+ compared to Fgfr3^+/+ (FIG. 1C).
In order to analyze the bone microarchitecture, we performed microCT scans. We observed an alteration in the microarchitecture of callus formation from day10 to day 28 Fgfr3^N534K/+ compared to Fgfr3^+/+.
HCH mice (Fgfr3^N534K/+) were treated with BMN111 (subcutaneous injection at 0.8 mg/kg, 3 times per week) from day 0 (facture of the mandible) to day 14 or day 28. The bone repair analyses were evaluated by microCT scans at day 14 and day 28 post fracture. […] BV/TV is increased at day 14 (+29%; p<0.005) in treated HCH mice (n=8) compared to untreated HCH mice (n=9). BV/TV is increased at day 28 post fracture and (+24% p<0.005) in the HCH mice (n=9) compared to the untreated HCH mice (n=14) (FIGS. 1A and 1B).

Test [2] has as its system mouse model (Fgfr3^Y367C/+). Particulars: human ACH cells and Fgfr3^Y367C/+ mouse model; Lorget et al 2012; cited from earlier work.
[3] abbreviates: day 28 grade repair, treated HCH mice.
The mark [4] stands for this setting: microCT, day 28 post fracture, treated (n=9) vs untreated (n=14) HCH mice, BMN111 s.c. 0.8 mg/kg 3 times per week, p<0.005.

“Vosoritide (PGQEHPNARKYKGANKKGLSKGCFGLKLDRIGSMSGLGC; chains of the INN, looked up) [BMN111, CNP analog, NPR2 agonist; formula C176H290N56O51S3, CAS Number 1480724-61-5]”: in test [1] (setting [3]), the “Complete bone healing (grade 1), mice observed” value is reported as 7/9 and the “Restoration of bone continuity, but presence of mild bone defects (grade 2), mice observed” value is 2/9. For the same substance, in test [1] (microCT, day 14 post fracture, treated (n=8) vs untreated (n=9) HCH mice, BMN111 s.c. 0.8 mg/kg 3 times per week, p<0.005), the BV/TV increase result is recorded as “+29%”. For the same substance, the callus volume in test [1] (microCT, day 14 post fracture, treated vs untreated HCH mice, BMN111 s.c. 0.8 mg/kg 3 times per week) is “unchanged”. Further, in test [1] (setting [4]), the BV/TV increase entry is “+24%” and the “decrease of the volume of the callus” value is given as −30.9%. For the same substance, the “pseudarthrosis in the callus” value in test [1] (treated HCH mice, mandible fracture callus) is recorded as “without pseudarthrosis”. In addition, the “effect on long bone growth and the skull” value in test [2] is reported as “beneficial effect”.

The values above are taken from US20260166127A1, “USE OF ANALOG OF C-TYPE NATRIURETIC PEPTIDE FOR THE TREATMENT OF FGFR-RELATED BONE REPAIR AND BONE FORMATION IMPAIRMENT” (INSTITUT NATIONAL DE LA SANTÉ ET DE LA RECHERCHE MÉDICALE, priority 2021, published 2026).
